Experimental findings from US12239711B2, “Cereblon ligands and bifunctional compounds comprising the same” (Arvinas Operations, Inc., priority 2014, dated 2025) are described below.

Some results are limits rather than exact numbers.

Experiment [1] concerns the target T1, Estrogen Receptor-Alpha (ERα) (Homo sapiens, UniProt P03372).
T1 construct: endogenous in cells; host or cells: MCF-7 (MCF7) cells
T1 sequence (P03372 1-595): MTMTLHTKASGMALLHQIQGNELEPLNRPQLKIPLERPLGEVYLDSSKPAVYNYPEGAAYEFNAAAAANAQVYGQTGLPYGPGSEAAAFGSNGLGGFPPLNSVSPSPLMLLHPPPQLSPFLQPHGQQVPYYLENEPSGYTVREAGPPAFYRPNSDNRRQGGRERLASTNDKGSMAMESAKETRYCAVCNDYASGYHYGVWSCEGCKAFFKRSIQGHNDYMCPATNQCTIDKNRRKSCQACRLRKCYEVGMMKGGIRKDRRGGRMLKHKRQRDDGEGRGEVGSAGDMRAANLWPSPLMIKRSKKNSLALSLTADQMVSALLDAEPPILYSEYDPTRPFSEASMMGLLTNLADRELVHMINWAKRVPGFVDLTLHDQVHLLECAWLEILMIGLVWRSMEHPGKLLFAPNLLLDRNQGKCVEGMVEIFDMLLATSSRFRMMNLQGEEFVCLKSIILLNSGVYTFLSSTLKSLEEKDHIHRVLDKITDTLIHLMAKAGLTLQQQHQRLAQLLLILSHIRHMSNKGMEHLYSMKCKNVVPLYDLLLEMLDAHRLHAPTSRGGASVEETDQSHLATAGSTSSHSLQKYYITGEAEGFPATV
The experiment can be described thus: Estrogen Receptor-Alpha (ERα) degradation assay in MCF-7 cells (western blot / In-Cell Western). The experiment is classed as cell-based. The conditions noted are these: for Dmax: MCF7, read-out: ER Dmax; for DC50: read-out: ER DC50. The procedure: 2. Estrogen Receptor-Alpha (ERα) Degradation Assay in MCF-7 Cells Using Western Blot Method for Table 5.
The exemplary novel ERα degraders were assessed for their activity in degrading ERα in MCF-7 cells via western blot. The assay was carried out in the presence of 10% FBS or high percentage of human or mouse serum. Protocols of the western blot assay are described below.
MCF7 cells were grown in DMEM/F12 with 10% FBS and seeded at 24,000 cells per well in 100 μl into 96-well clear tissue culture plates. The following day, the cells were treated with PROTACs in a […] concentration curve with 100 nM being the top concentration and serial dilutions to make the other concentrations (30 nM, 10 nM, 3 nM, 1 nM, and 0.3 nM). At all concentrations, 0.01% DMSO is the final concentration in the well. The following day, the plates are aspirated, washed with 50 μl of cold PBS. The cells are lysed with 50 μl/well 4° C. Cell Lysis Buffer (Catalog #9803; Cell Signaling Technology, Danvers, MA) (20 mM Tris-HCL (pH 7.5), 150 mM NaCl, 1 mM Na2EDTA, 1 mM EGTA, 1% Triton, 2.5 mM sodium pyrophosphate, 1 mM B-glycerophosphate, 1 mM sodium vanadate, 1 ug/ml leupeptin). Lysates were clarified at 16,000×g for 10 minutes, and 2 μg of protein was subjected to SDS-PAGE analysis and followed by immunoblotting according to standard protocols. The antibodies used were ERα (Cell Signaling Technologies Catalog #8644), and Tubulin (Sigma Catalog #T9026; St. Louis, MO). Detection reagents were Clarity Western ECL substrate (Bio-Rad Catalog #170-5060; Hercules, CA).
Alternatively, MCF7 cells were grown in DMEM/F12 with 10% FBS and seeded at 24,000 cells per well in 500 μl in 24-well clear tissue culture plates. The following day, the cells were treated with PROTACs in a 5-point concentration curve (100 nM, 33 nM, 11 nM, 3.7 nM, and 1.2 nM) in the presence of 0.01% DMSO. After 72 hours, the wells are aspirated and washed with 500 μl of PBS. The cells are lysed with 100 μl/well 4° C. Cell Lysis Buffer (Catalog #9803; Cell Signaling Technology, Danvers, MA) (20 mM Tris-HCL (pH 7.5), 150 mM NaCl, 1 mM Na2EDTA, 1 mM EGTA, 1% Triton, 2.5 mM sodium pyrophosphate, 1 mM B-glycerophosphate, 1 mM sodium vanadate, 1 ug/ml leupeptin). Lysates were clarified at 16,000×g for 10 minutes, and 2 μg of protein was subjected to SDS-PAGE analysis and followed by immunoblotting according to standard protocols. The antibodies used were ERα (Cell Signaling Technologies Catalog #8644), and Tubulin (Sigma Catalog #T9026; St. Louis, MO). Detection reagents were Clarity Western ECL substrate (Bio-Rad Catalog #170-5060; Hercules, CA).
3. Estrogen Receptor-Alpha (ERα) Degradation Assay Using In-Cell Western™ Assay for Table 5.
Degradation of ERα by claimed compounds were determined in MCF7 cells using an In-Cell Western™ assay. Briefly, MCF7 cells were plated in 96-well plates (2000 cells per well in 100 μl media) and incubated at 37° C. under an atmosphere of 5% CO2 in a humidified incubator overnight. One-hundred (100) μl of media containing test compound (at 2× concentration) was added to the appropriate wells to provide 11 serially decreasing concentrations (top final concentration, 1 μM then 3-fold less for the next 10 concentrations); a vehicle control (DMSO) was also added for each compound. For each experiment, all compounds were assayed in duplicate plates. Cells were then incubated for 3 or 5 days in the above-mentioned environment. The assay was terminated by removal of media, a single wash with ice-cold PBS and the addition of 50 μl paraformaldehyde (PFA: 4% in PBS). After 15 minutes in PFA at room temperature, the cells were permeabilized in Tris-phosphate-buffered saline with Tween (0.1%) (TBST) supplemented with Triton X-100 (0.5%) for 15 minutes. Cells were then blocked in BSA (TBST with BSA, 3%) for one hour. […]
(A western blot detects proteins with antibodies after separation by electrophoresis.)

The test system of experiment [2] is estrogen responsive element/promoter/luciferase reporter gene. Briefly: ERE Luciferase Assay in T47D-KBluc cells. The experiment is classed as cell-based, human. The conditions noted are these: Homo sapiens, 24 hours, luciferase activity, read-out: Target Engagement IC50. The procedure: 1. ERE Luciferase Assay for Compounds in Table 5.
T47D-KBluc cells (ATCC® #CRL_2865, T47D human breast cancer cells stably transfected with estrogen responsive element/promoter/luciferase reporter gene) were seeded into 96-well white opaque plates in RPMI growth medium supplemented with 10% fetal bovine serum (FBS) and allowed to adhere overnight in a 37° C. humidified incubator. The following day, cells were treated with PROTACs in a 12-point concentration curve (top final concentration of 300 nM with subsequent concentrations being 3-fold less with 2 pM being the lowest concentration in the assay). Each PROTAC was tested independently in two experiments on 96-well plates. After 24 hours, media was removed and lysis buffer was added to the wells. Following lysis, Bright-Glo™ Luciferase Assay Substrate (Promega, Madison WI) was added and the luciferase activity was measured using a Cytation 3 plate reader (BioTek™, Winooski, VT). Each compound was assayed in duplicate and the activity was calculated as IC50 using GraphPad Prism software (San Diego, CA).

Broadly, the Dmax is the greatest extent of degradation seen. In general, DC50 refers to the concentration giving 50% degradation. Broadly, the IC50 is the concentration that inhibits the measured activity by half.

Take `COc1cc(N2CCN(CCCCCOc3ccc([C@H]4c5ccc(O)cc5CC[C@H]4c4ccccc4)cc3)CC2)cc2c1C(=O)N(C1CCC(=O)NC1=O)C2` (stereo partly drawn) [compound 1, 3-{5-[4-(5-{4-[(1S,2R)-6-hydroxy-2-phenyl-1,2,3,4-tetrahydronaphthalen-1-yl]phenoxy}pentyl)piperazin-1-yl]-7-methoxy-1-oxo-2,3-dihydro-1H-isoindol-2-yl}piperidine-2,6-dione]: in experiment [1], the Dmax fell in the range of 50 to 75% and the DC50 was in the range of 10 to 100 nM. The IC50 in experiment [2] was 58.2 nM.

`COc1cc(N2CCN(CCCCCOc3ccc([C@@H]4c5ccc(O)cc5CC[C@@H]4c4ccccc4)cc3)CC2)cc2c1C(=O)N(C1CCC(=O)NC1=O)C2` (stereo partly drawn) [compound 2, 3-(5-(4-(5-(4-((1R,2S)-6-hydroxy-2-phenyl-1,2,3,4-tetrahydronaphthalen-1-yl)phenoxy)pentyl)piperazin-1-yl)-7-methoxy-1-oxoisoindolin-2-yl)piperidine-2,6-dione]: in experiment [1], the Dmax was at least 75% and the DC50 was in the range of 1 to 10 nM. Further, in experiment [2], the IC50 was 0.79 nM.

As for `COc1c(N2CCN(CCCCCOc3ccc([C@@H]4c5ccc(O)cc5CC[C@@H]4c4ccccc4)cc3)CC2)ccc2c1CN(C1CCC(=O)NC1=O)C2=O` (stereo partly drawn) [compound 3, 3-[5-[4-[5-[4-[(1R,2S)-6-hydroxy-2-phenyl-tetralin-1-yl]phenoxy]pentyl]piperazin-1-yl]-4-methoxy-1-oxo-isoindolin-2-yl]piperidine-2,6-dione], in experiment [1], the Dmax was at least 75% and the DC50 is below 1 nM. In experiment [2], the IC50 worked out at 1.35 nM.

Turning to `COCCOCCOc1c(N2CCN(CCCCCOc3ccc([C@@H]4c5ccc(O)cc5CC[C@@H]4c4ccccc4)cc3)CC2)ccc2c1CN(C1CCC(=O)NC1=O)C2=O` (stereo partly drawn) [compound 4, 3-[5-[4-[5-[4-[(1R,2S)-6-hydroxy-2-phenyl-tetralin-1-yl]phenoxy]pentyl]piperazin-1-yl]-4-[2-(2-methoxyethoxy)ethoxy]-1-oxo-isoindolin-2-yl]piperidine-2,6-dione], in experiment [1], the Dmax is at least 75% and the half-maximal degradation concentration (DC50) was below 1 nM. Further, the IC50 in experiment [2] was 1.42 nM.

Regarding `COCCOCCOc1c(N2CCN(CC3CCN(c4ccc([C@H]5c6ccc(O)cc6CC[C@H]5c5ccccc5)cc4)CC3)CC2)ccc2c1CN(C1CCC(=O)NC1=O)C2=O` (stereo partly drawn) [compound 5, 3-(5-{4-[(l-{4-[(1S,2R)-6-hydroxy-2-phenyl-1,2,3,4-tetrahydronaphthalen-1-yl]phenyl}piperidin-4-yl)methyl]piperazin-1-yl}-4-[2-(2-methoxyethoxy)ethoxy]-1-oxo-2,3-dihydro-1H-isoindol-2-yl)piperidine-2,6-dione], the Dmax in experiment [1] is below 50%. Also, the IC50 in experiment [2] was above 300 nM.

Take `COCCOCCOc1c(N2CCN(CC3CCN(c4ccc([C@@H]5c6ccc(O)cc6CC[C@@H]5c5ccccc5)cc4)CC3)CC2)ccc2c1CN(C1CCC(=O)NC1=O)C2=O` (stereo partly drawn) [compound 6, 3-(5-{4-[(1-{4-[(1R,2S)-6-hydroxy-2-phenyl-1,2,3,4-tetrahydronaphthalen-l-yl]phenyl}piperidin-4-yl)methyl]piperazin-1-yl}-4-[2-(2-methoxyethoxy)ethoxy]-1-oxo-2,3-dihydro-1H-isoindol-2-yl)piperidine-2,6-dione]: in experiment [1], the Dmax is below 50%. In experiment [2], the IC50 turned out to be 2.18 nM.

Regarding `COCCOCCOc1c(CCN2CCCN(CCCCOc3ccc([C@H]4c5ccc(O)cc5CC[C@H]4c4ccccc4)cc3)CC2)ccc2c1CN([C@H]1CCC(=O)NC1=O)C2=O` [compound 7, (3S)-3-(5-{2-[4-(4-{4-[(1S,2R)-6-hydroxy-2-phenyl-1,2,3,4-tetrahydronaphthalen-1-yl]phenoxy}butyl)-1,4-diazepan-1-yl]ethyl}-4-[2-(2-methoxyethoxy)ethoxy]-1-oxo-2,3-dihydro-1H-isoindol-2-yl)piperidine-2,6-dione], in experiment [1], the Dmax lay within 50 to 75% and the DC50 is at least 100 nM. In addition, the IC50 in experiment [2] is 102 nM.

Turning to `COCCOCCOc1c(CCN2CCCN(CCCCOc3ccc([C@@H]4c5ccc(O)cc5CC[C@@H]4c4ccccc4)cc3)CC2)ccc2c1CN([C@H]1CCC(=O)NC1=O)C2=O` [compound 8, (3S)-3-[5-[2-[4-(4-[4-[(1R,2S)-6-hydroxy-2-phenyl-tetralin-1-yl]phenoxy]butyl]-1,4-diazepan-1-yl]ethyl]-4-[2-(2-methoxyethoxy)ethoxy]-1-oxo-isoindolin-2-yl]piperidine-2,6-dione], in experiment [1], the Dmax fell in the range of 50 to 75% and the DC50 fell in the range of 1 to 10 nM. In addition, in experiment [2], the IC50 stood at 0.34 nM.

On to `COc1cc(N2CCN(CCC3CCN(c4ccc([C@H]5c6ccc(O)cc6CC[C@H]5c5ccccc5)cc4)CC3)CC2)cc2c1C(=O)N(C1CCC(=O)NC1=O)C2` (stereo partly drawn) [compound 9, 3-(5-{4-[2-(1-{4-[(1S,2R)-6-hydroxy-2-phenyl-1,2,3,4-tetrahydronaphthalen-1-yl]phenyl}piperidin-4-yl)ethyl]piperazin-1-yl}-7-methoxy-1-oxo-2,3-dihydro-1H-isoindol-2-yl)piperidine-2,6-dione], for which, in experiment [1], the Dmax was in the range of 50 to 75% and the DC50 is at least 100 nM. In addition, the IC50 in experiment [2] is above 300 nM.

`COc1cc(N2CCN(CCC3CCN(c4ccc([C@@H]5c6ccc(O)cc6CC[C@@H]5c5ccccc5)cc4)CC3)CC2)cc2c1C(=O)N(C1CCC(=O)NC1=O)C2` (stereo partly drawn) [compound 10, 3-[5-[4-[2-[1-[4-[(1R,2S)-6-hydroxy-2-phenyl-tetralin-1-yl]phenyl]-4-piperidyl]ethyl]piperazin-1-yl]-7-methoxy-1-oxo-isoindolin-2-yl]piperidine-2,6-dione]: in experiment [1], the Dmax was at least 75% and the DC50 is 1 to 10 nM. Further, the IC50 in experiment [2] was 0.86 nM.

As for `COc1cc(N2CCN(CC3CCN(c4ccc([C@H]5c6ccc(O)cc6CC[C@H]5c5ccccc5)cc4)CC3)CC2)cc2c1C(=O)N(C1CCC(=O)NC1=O)C2` (some centres unmarked) [compound 31], the Dmax in experiment [1] is below 50%.
